# Source: patent US20260317328A1, “SMALL MOLECULES FOR ADOPTIVE T-CELL THERAPY (ACT) THROUGH ACTIVATION OF THE mTOR SIGNALLING PATHWAY, PROCESS FOR PREPARATION THEREOF” (COUNCIL OF SCIENTIFIC & INDUSTRIAL RESEARCH, priority 2023, published 2026)
# Experiments:
# [1] = test system: EL4-OVA tumors; experiment: Adoptive transfer of OT1 T cells into mice bearing EL4-OVA tumors; assay type: in vivo, mouse
# Description: Given the functional fitness of Comp-19 treated CD8^+ T cells in vitro, we, next, sought to determine their antitumor potential upon adoptive transfer into mice bearingEL4-OVA tumors.
# EL-4.OVA tumor cells (1×10^6) or B16-F10 melanoma (0.5×10^6 cells) were injected subcutaneously into the left flank of 7-10 weeks old C57BL/6 mice. After 9 days of tumor establishment, ex vivo activated OT-1 T cells at 0.5×10^6 cells/mouse were adoptively transferred intravenously into tumor-bearing recipients.
# [2] = test system: Human naïve CD8^+ T cells; experiment: EC50 for IFNγ production in human naïve CD8+ T cells; assay type: cell-based; settings: 72 hrs, doses 500 pM to 50 μM, N=3 for each dose
# Description: Human naïve CD8^+ T cells were sorted from PBMC and activated in presence of Comp 19 in the different doses (500 pM, 1 nM, 100 nM, 500 nM, 1 μM, 5 μM, 10 μM, 50 μM). After 72 hrs, activated CD8+ T cells were restimulated and stained for IFNγ production. Percent of CD8+ T cell producing IFNγ in the previously mentioned doses of Comp 19 was normalized to a vehicle control (DMSO) treated group. The optimum dosage of Comp 19 for inducing effector cytokine (IFNγ) production from CD8^+ T cells is 10 μM. […] (N=3 for each dose of Comp 19).
# Human peripheral blood mononuclear cells (PBMC) were obtained from fully anonymized whole blood bags (age & sex related information were not provided) collected from healthy volunteer blood donors at NRS Medical College & Hospital, Kolkata, India. […]
# (§1) Measurement of cytokine production: To assess IFN-γ and TNF-α secretion by intracellular cytokine staining, cells (0.2×10^6) were treated for 4 hours with restimulation cocktail containing phorbolmyristate acetate (50 ng ml^−1) and ionomycin (500 ng ml^−1), brefeldin A (to block anterograde protein transport). […] Next cells were washed with PBS, fixed for 20 min at 4° C. with fixation/permeabilization solution, washed with permeabilization buffer, finally stained for 30 min with anti-IFN-γ and anti-TNF-α mAb in dark at 4° C., washed with PBS and analyzed.
# [3] = test system: CD8^+ T cells; experiment: Effector cytokine (IFN-γ, TNF-α) production by activated CD8+ T cells; assay type: cell-based; settings: naïve T cells activated in presence of compound (FIG. 2B-E)
# Source text: Distinct T cell states require specific metabolic programs compatible to their functional demands. The transition between various T cell states is accompanied by active rewiring of cellular metabolism and epigenetic landscape. Oxidative phosphorylation is the main biochemical pathway that drives metabolism of naïve T cell. Upon activation, naïve T cells rapidly reprogram their metabolic networks to comply with the demands of robust clonal expansion and epigenetic remodeling. So, TCR activation and co-stimulation initiate a set of signaling cascades that collectively license a T cell to exit quiescence. […] So, we assessed glucose uptake level by activated CD8^+ T cells using fluorescent labeled deoxy-glucose analogue, 2NBDG. […]
# as §1
# [4] = test system: mTORC1; experiment: mTORC1 activity in CD8+ T cells: pS6 and p4EBP1 levels (flow cytometry, western blot); assay type: cell-based
# Source text: Several transcription factors and signaling pathways coordinately support and regulate the metabolic shifting of naïve T cell after activation. Downstream of co-stimulation and PI3K-AKT signaling, mammalian target of Rapamycin (mTOR) kinase pathway helps in integrating multiple signals, plays a significant role for cell cycle entry and coordinates early anabolic changes that occur upon T cell activation mTOR complex 1 (mTORC1) promote aerobic glycolysis and support effector T cell proliferation, growth, and cytokine production. Translation repressor protein 4E-BP1 inhibits cap-dependent translation by binding to the translation initiation factor eIF4E. Phosphorylation of 4E-BP1 by mTORC1 disrupts this interaction and results in activation of cap-dependent translation. On the contrary, phosphorylation of S6 ribosomal protein correlates with an increase in translation of mRNA transcripts that contain an oligopyrimidine tract in their 5′ untranslated regions. Activation of mTORC1 increases protein translation via direct phosphorylation of 4E-BP1 and p70S6 kinase. Since Comp-19 was proposed as mTORC1 activator, next we sought to check expression level ofpS6 and p4EBP1 level inside CD8^+ T cells activated in presence/absence of Comp-19. […] CD8^+ T cells treated with Comp-19 (FIG. 3A-C).
# (§2) Purified naïve CD3^+ T cells were activated either in presence of Comp 19 ([…]) or vehicle (DMSO) with plate-bound anti-CD3 ([…]) and anti-CD28 ([…]) for 72 h in RPMI-1640 medium containing 10% FBS, 50 µM R-ME, 50 U/mL penicillin and […] streptomycin and 100 IUmL^−1 rIL-2.
# pS6 Staining: Intracellular phospho ribosomal protein S6 (pS6) were stained using Transcription factor Phospho Buffer set. Single cell suspension was prepared and cells were washed with 1×PBS. […] Finally, cells were washed, dissolved in PBS and analysed by flow cytometry.
# Cell lysates from 4×10^6 cells per condition were prepared in RIPA buffer containing protease inhibitor cocktail. Protein concentrations were determined with a serial dilution standard curve of Bradford assay. […]
# [5] = test system: CD8^+ T cells; experiment: Initial small molecule screening: intracellular cytokine staining of CD8+ T cells activated with each small molecule; assay type: cell-based, mouse
# Source text: To select the small molecule capable of inducing IFN-γ production in CD8^+ T cells, […] CD3^+ sorted naïve T cells were activated with each small molecule for 72 hrs followed by an intracellular cytokine staining.
# CD3^+ T cells were isolated from human peripheral blood by density-gradient (Ficoll gradient) centrifugation followed by a negative selection using Dynabeads Untouched Human T Cells Kit, resulting in a typically >90% pure CD3^+ T cell population.
# as §2
# Measurement of cytokine production: To assess IFN-γ and TNF-α secretion by intracellular cytokine staining, cells (0.2×10^6) were treated for 4 hours with restimulation cocktail containing phorbolmyristate acetate (50 ng ml^−1) and ionomycin (500 ng ml^−1), brefeldin A (to block anterograde protein transport). Then cells were stained for surface markers and simultaneously labeled with Live/Dead Yellow Fluorescent Dye for 20 min at 4° C. Next cells were washed with PBS, fixed for 20 min at 4° C. with fixation/permeabilization solution, washed with permeabilization buffer, finally stained for 30 min with anti-IFN-γ and anti-TNF-α mAb in dark at 4° C., washed with PBS and analyzed.
# [6] = test system: CD8^+ T cells; experiment: Glucose uptake assay (2NBDG) in activated CD8+ T cells; assay type: cell-based; settings: naïve T cells activated in presence of compound; 2NBDG (FIG. 2A)
# Source text: Distinct T cell states require specific metabolic programs compatible to their functional demands. The transition between various T cell states is accompanied by active rewiring of cellular metabolism and epigenetic landscape. Oxidative phosphorylation is the main biochemical pathway that drives metabolism of naïve T cell. Upon activation, naïve T cells rapidly reprogram their metabolic networks to comply with the demands of robust clonal expansion and epigenetic remodeling. So, TCR activation and co-stimulation initiate a set of signaling cascades that collectively license a T cell to exit quiescence. Stimulation of the TCR promotes signaling through the ERK/MAPK pathways and calcium flux, activation of the PI3K-AKT-mTOR axis which subsequently resulting in T cell activation. This conversion to an activated effector T cell is marked by enhanced glucose uptake, engagement of aerobic glycolysis, increased oxidative phosphorylation. So, we assessed glucose uptake level by activated CD8^+ T cells using fluorescent labeled deoxy-glucose analogue, 2NBDG. […]
# Glucose uptake assay: Glucose uptake by activated T cells was evaluated using fluorescent labeled deoxy-glucose analogue, 2NBDG. […]
# [7] = Plasma stability assay; assay type: in vitro ADME; settings: human, 37° C., 120 mins
# Description: 1 mM Stock of test compound was prepared from 10 mM initial stock solution of compounds by diluting 10 μL of 10 mM stock with 90 μL of DMSO. Then 10 μL of 1 mM stock was diluted with 90 μL of DMSO to give 100 μM concentration. The frozen plasma was thawed at room temperature and centrifuged at 1400 rpm at 4° C., for 15 minutes. Approximately 90% of the clear supernatant fraction was transferred to a separate tube and was used for the assay. Final working stock of 1 μM was prepared by diluting 3 μL of 100 μM with 297 μL of plasma. Plasma containing the test compound was incubated for 120 mins at 37° C. in shaker with 500 rpm. 50 μL of aliquot of sample at 0, 15, 30, 60 and 120 minutes were precipitated with 150 μL of acetonitrile containing internal standard and centrifuged at 4000 rpm at 4° C. for 20 minutes. 120 μL of supernatant was diluted with 120 μL of water and analyzed by LC-MS/MS.
# [8] = Metabolic stability using human liver microsomes (HLM); assay type: in vitro ADME; settings: pH 7.4, read-out: % QH (Well stirred model)
# Description: 1 mM stock solution of test compound was prepared in DMSO and diluted with Acetonitrile:Water (1:1) to get a 100 μM working concentration. 100 mL of Milli Q water was added to K2HPO4 (1.398 g) and KH2PO4 (0.27 g) to get final pH 7.4 solution of potassium phosphate buffer. […] The above mixture was pre incubated for 15 minutes at 37° C. After pre incubation, 32.5 μL of the mixture was added to 17.5 μL of buffer, this was incubated for 60 minutes at 37° C. [60 min Without Cofactor (NADPH)]. 16.25 μL of the pre incubated mixture and 8.75 μL of cofactor was added to 150 μL of acetonitrile containing internal standard [0 min Sample]. 62 μL of cofactor was added to remaining pre incubation mixture [Incubation mixture]. 25 μL of incubation mixture at 0, 5, 15, 30, 60 min and 60 min without cofactor were precipitated with 150 μL of acetonitrile containing internal standard, vortexed and centrifuged at 4000 rpm at 4° C. for 20 minutes. 120 μL of supernatant was diluted with 120 μL of water and analyzed by LC-MS/MS [sample preparation].
# [9] = Lipophilicity assay (n-octanol / phosphate buffer); assay type: physicochemical; settings: pH 7.4, 1-octanol/10 mM sodium phosphate buffer, room temperature; criteria: <0 low, 0-1 moderate, >2 high lipophilicity
# Description: 1.56 g NaH2PO4O·2H2O was dissolved in 0.5 L water in a 1 L beaker. After adjusting pH to 7.4 using NaOH solution, the volume was made up to 1 L. Equal volumes of sodium phosphate buffer (10 mM, pH 7.4) and n-octanol were added to a separation funnel and mixed thoroughly by shaking and inverting the funnel several times. The two layers were allowed to separate for overnight and then dispensed in two separate glass bottles. 10 mM stock solution was prepared in 100% DMSO and stored at 4° C. 495 μL of organic phase (1-octanol) was added to each well of a 2 mL deep well plate, followed by 495 μL of buffer and 10 μL of test substance was added. The plate was incubated for 3 hr at room temperature on a plate shaker at 500 rpm. After incubation, the samples were allowed to equilibrate for 20 min and then centrifuged at 4000 rpm for 30 min for complete phase separation and analysed by LC-UV.
# Log D=Log (area of octanol/area of buffer)
# [10] = OT1 T cells (0.5×10^6 cells/mouse) activated in presence of 10 μM ml^−1 compound
# [11] = inhibitory receptor (FIG. 4F,4G)
# [12] = 10 μM, 72 hrs, compared to vehicle control/other small molecules treated group (FIG. 1A-B)
smiles,measurement,setting,value
"COc1ccc(-c2nc3c(NS(=O)(=O)c4ccc(C)cc4)ncnc3n2C)cc1 [Compound 19, N-(8-(4-methoxyphenyl)-9-methyl-9H-purin-6-yl)-4-methylbenzenesulfonamide]",persistence of CD8+Vβ5.1+ OT1 T cells,[1]; FIG. 4B,improved persistence
same,survival of tumor-bearing mice,[1]; [10],markedly enhanced the survival
same,tumor growth control,[1]; [10],could efficiently control tumor growth
same,CD38 expression on CD8+Vβ5.1+ OT1 T cells,[1]; [11],reduced expression
same,PD1 expression on CD8+Vβ5.1+ OT1 T cells,[1]; [11],reduced expression
same,TIM3 expression on CD8+Vβ5.1+ OT1 T cells,[1]; [11],reduced expression
same,number of circulating CD8^+Vβ5.1^+ T cells,"[1]; tumor-bearing host, vs mice that received DMSO treated cells",higher number
same,optimum dosage for inducing effector cytokine (IFNγ) production from CD8^+ T cells,[2],10 µM
same,EC50,"[2]; Homo sapiens, T-cell, normalized to vehicle (DMSO)",4.09 µM
same,IFN-γ production level from CD8^+ T cell,[3],significant increase
same,TNF-α production level from CD8^+ T cell,[3],significant increase
same,mTORC1 activation,[4]; conclusion from pS6 and 4EBP1 results in CD8^+ T cells,potent mTOR-Cl activator
same,4EBP1 (p4EBP1) expression,[4]; downstream substrate of mTORC1 (FIG. 3D),significant high expression
same,pS6 level inside CD8^+ T cells,[4]; flow cytometry and western blot (FIG. 3A-C),marked increase
same,IFN-γ production from CD8^+ T cells,[5]; [12],highest
same,TNF-α production from CD8^+ T cells,[5]; [12],highest
same,improving effector cytokine production from CD8^+ T cells (ranking among the small molecules),[5]; 72 hrs activation,most promising
same,glucose uptake,[6],promoted glucose uptake
same,"remaining at 2 h, 1 µM",[7],85.8%
same,hepatic extraction ratio,[8],0.0077
same,logD,[9],0.96
"CCc1ccc(S(=O)(=O)Nc2ncnc3c2nc(-c2ccc(OC)cc2)n3C)cc1 [Compound 22, 4-ethyl-N-(8-(4-methoxyphenyl)-9-methyl-9H-purin-6-yl)benzenesulfonamide]","remaining at 2 h, 1 µM",[7],3.9%
same,hepatic extraction ratio,[8],0.318
same,logD,[9],4.32
"COCCc1ccc(OCC(O)CNC(C)C)cc1 (centres unmarked) [Metroprolol, reference compound]",logD,[9],-0.34
"CC(C)[N+](C)(CCOC(=O)C1c2ccccc2Oc2ccccc21)C(C)C [Propantheline, reference compound]","remaining at 2 h, 1 µM",[7],0.33%
